We go through ten molecules from ChEMBL document CHEMBL2029278 (Bioorg Med Chem Lett, 2012).

Active and inactive are the calls of the source. The calls are words filed in the database; no cut-off is given here.

The term IC50 denotes the point on the concentration scale where inhibition reaches its midpoint. Read a high IC50 as lower potency.

In one experiment the target is T1, Neuraminidase (Influenza A virus, UniProt B4URF0). Kind of experiment: Inhibition of wild type H1N1 swine influenza virus neuraminidase using 4-MU-NANA as substrate by fluorescence assay.
T1 sequence (B4URF0 whole entry): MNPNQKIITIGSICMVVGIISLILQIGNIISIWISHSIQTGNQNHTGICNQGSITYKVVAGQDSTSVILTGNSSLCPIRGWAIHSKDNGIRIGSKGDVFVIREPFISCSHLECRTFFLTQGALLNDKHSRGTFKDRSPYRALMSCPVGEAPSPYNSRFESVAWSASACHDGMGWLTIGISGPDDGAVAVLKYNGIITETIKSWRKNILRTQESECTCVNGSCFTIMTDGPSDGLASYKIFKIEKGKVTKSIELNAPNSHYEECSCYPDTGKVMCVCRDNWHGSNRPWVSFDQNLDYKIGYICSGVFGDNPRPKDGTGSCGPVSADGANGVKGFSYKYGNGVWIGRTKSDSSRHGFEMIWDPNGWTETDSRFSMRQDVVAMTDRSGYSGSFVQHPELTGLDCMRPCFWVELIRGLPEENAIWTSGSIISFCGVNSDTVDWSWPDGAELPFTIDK
Settings: not given
For `O=c1c2cc(O)ccc2oc2cc(O)cc(O)c12`, the 50% inhibitory concentration (IC50) was 54.9 µM.
`O=c1c2ccccc2oc2cc(O)cc(O)c12` gave an IC50 of 48.9 µM.
Same read-out and setting: then `COc1ccc(O)c2c(=O)c3cc(O)ccc3oc12`, with 36.1 µM; and `O=c1c2cccc(O)c2oc2cc(O)c(O)c(O)c12`, with 52.6 µM.
The same measure, in the same setting: then `O=c1c2cc(O)ccc2oc2cccc(O)c12`, with 50.6 µM.

The target in another experiment is T1, Neuraminidase. Kind of experiment: Inhibition of Influenza A virus H1N1 neuraminidase using 4-MU-NANA as substrate by fluorescence assay.
Settings: not given
`COc1c(O)cc2oc3cc(O)ccc3c(=O)c2c1OC` had an IC50 greater than 347 µM.
Molecule `O=c1c2cc(O)ccc2oc2cc(O)cc(O)c12` had a half-maximal inhibitory concentration (IC50) of 110 µM.
Still for that read-out and setting: then `COc1cccc2oc3ccc(O)cc3c(=O)c12`, with greater than 413 µM; and `COc1c(O)cc2c(=O)c3ccccc3oc2c1OC`, with greater than 367 µM; and `O=c1c2ccccc2oc2cc(O)cc(O)c12`, with 102 µM.
Same read-out and setting: then `COc1c2c(cc3c(=O)c4ccccc4oc13)OCO2`, with greater than 370 µM.
In turn, `COc1ccc(O)c2c(=O)c3cc(O)ccc3oc12` showed a 50% inhibitory concentration (IC50) of 110 µM.
On the same count and under the same terms, in the case of `COc1cc(O)c2oc3ccccc3c(=O)c2c1OC` it was greater than 367 µM.
In turn, `O=c1c2cccc(O)c2oc2cc(O)c(O)c(O)c12` showed an IC50 of 103 µM.
Same read-out and setting: then `O=c1c2cc(O)ccc2oc2cccc(O)c12`, with 103 µM.

The subject of the next experiment is Influenza A virus. Nature of the experiment: Antiviral activity against Influenza A virus PR/8/34 H1N1 infected in dog MDCK cells assessed as reduction in virus-induced cytopathic effect at 5 ug/mL. The settings on record: A/Puerto Rico/8/1934(H1N1). The format is functional, organism-based.
For `O=c1c2cc(O)ccc2oc2cc(O)cc(O)c12`, the result was Active.
Still for that read-out and setting: in the case of `O=c1c2ccccc2oc2cc(O)cc(O)c12` it was “Active”; in that of `COc1ccc(O)c2c(=O)c3cc(O)ccc3oc12`, “Active”; in that of `O=c1c2cccc(O)c2oc2cc(O)c(O)c(O)c12`, “Active”.
On the same count and under the same terms, then `O=c1c2cc(O)ccc2oc2cccc(O)c12`, with “Active”.

The target of a further experiment is T1, Neuraminidase. Kind of experiment: Inhibition of Influenza A virus H9N2 neuraminidase using 4-MU-NANA as substrate by fluorescence assay.
Settings: not given
On to `COc1c(O)cc2oc3cc(O)ccc3c(=O)c2c1OC`, for which the half-inhibitory concentration (IC50) is greater than 347 µM.
Same read-out and setting: then `O=c1c2cc(O)ccc2oc2cc(O)cc(O)c12`, with 101 µM.
On the same count and under the same terms, then `COc1cccc2oc3ccc(O)cc3c(=O)c12`, with greater than 413 µM.
On to `COc1c(O)cc2c(=O)c3ccccc3oc2c1OC`, for which the half-inhibitory concentration (IC50) is greater than 367 µM.
The same measure, in the same setting: then `O=c1c2ccccc2oc2cc(O)cc(O)c12`, with 67.7 µM; and `COc1c2c(cc3c(=O)c4ccccc4oc13)OCO2`, with greater than 370 µM; and `COc1ccc(O)c2c(=O)c3cc(O)ccc3oc12`, with 99.1 µM.
On the same count and under the same terms, then `COc1cc(O)c2oc3ccccc3c(=O)c2c1OC`, with greater than 367 µM; and `O=c1c2cccc(O)c2oc2cc(O)c(O)c(O)c12`, with 76.1 µM.
Still for that read-out and setting: in the case of `O=c1c2cc(O)ccc2oc2cccc(O)c12` it was 98.4 µM.
